# Measurements from US11634396B2 (priority 2021, dated 2023).
# Where two headings read alike, the source gives them in different places.
# What was measured:
# human mOR = human mOR (Homo sapiens (Human), UniProt P35372); experiment: cell-based
# human dOR = human dOR (Homo sapiens (Human), UniProt P41143); experiment: cell-based; settings: dOR cAMP Agonist Assay EC50, CHO Tag-lite human dOR stable cell line; forskolin
# Chain of human dOR (P41143 whole entry): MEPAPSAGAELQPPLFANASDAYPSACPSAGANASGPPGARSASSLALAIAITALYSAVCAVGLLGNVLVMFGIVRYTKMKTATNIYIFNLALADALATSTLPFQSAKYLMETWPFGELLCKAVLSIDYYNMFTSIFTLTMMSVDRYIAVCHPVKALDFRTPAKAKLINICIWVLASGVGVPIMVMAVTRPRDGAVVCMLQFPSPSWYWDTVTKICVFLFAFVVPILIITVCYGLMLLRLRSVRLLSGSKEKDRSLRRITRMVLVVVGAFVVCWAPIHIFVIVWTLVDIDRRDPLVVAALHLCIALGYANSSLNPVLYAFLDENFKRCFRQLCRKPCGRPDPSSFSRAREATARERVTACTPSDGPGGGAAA
# Chain of human mOR (P35372 whole entry): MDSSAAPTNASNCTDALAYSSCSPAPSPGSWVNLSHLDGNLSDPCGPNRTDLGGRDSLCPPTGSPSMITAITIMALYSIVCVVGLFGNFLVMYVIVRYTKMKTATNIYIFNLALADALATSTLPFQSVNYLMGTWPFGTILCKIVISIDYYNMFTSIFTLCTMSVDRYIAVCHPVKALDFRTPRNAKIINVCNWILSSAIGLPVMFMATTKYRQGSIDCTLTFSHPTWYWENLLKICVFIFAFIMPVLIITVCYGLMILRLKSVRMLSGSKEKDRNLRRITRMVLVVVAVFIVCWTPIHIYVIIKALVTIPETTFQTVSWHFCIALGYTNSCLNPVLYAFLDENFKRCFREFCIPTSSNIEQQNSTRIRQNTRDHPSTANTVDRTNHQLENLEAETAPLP
Compound,"IC50 (human mOR; CHO Tag-lite human mOR stable cell line, forskolin 4 μM and DAMGO at EC90, read-out: mOR cAMP Antagonist Assay IC50) [nM]",EC50 (human dOR) [nM],IC50 (human mOR) [nM]
"CNC(=O)c1ccc(C[C@@H](CNC(=O)C[C@H](C)c2ccc(Cl)cc2)N(C)C)cc1F [Compound 156, 4-((S)-3-((S)-3-(4-chlorophenyl)butanamido)-2-(dimethylamino)propyl)-2-fluoro-N-methylbenzamide]",< 300,300 to 3000,
"CNC(=O)c1ccc(C[C@@H](CNC(=O)C[C@H](c2ccccc2)C(C)(C)C)N2CCCC2)cc1F [Compound 157, 4-((S)-3-((S)-4,4-dimethyl-3-phenylpentanamido)-2-(pyrrolidin-1-yl)propyl)-2-fluoro-N-methylbenzamide]",,> 3000,< 300
"CNC(=O)c1ccc(C[C@@H](CNC(=O)C[C@H](c2ccccc2)C(C)(C)C)N(C)C)cc1F [Compound 158, 4-((S)-3-((S)-4,4-dimethyl-3-phenylpentanamido)-2-(dimethylamino)propyl)-2-fluoro-N-methylbenzamide]",,> 3000,< 300
"CNC(=O)c1ccc(C[C@@H](CNC(=O)C[C@@H](c2ccccc2)C(C)(C)C)N(C)C)cc1F [Compound 159, 4-((S)-3-((R)-4,4-dimethyl-3-phenylpentanamido)-2-(dimethylamino)propyl)-2-fluoro-N-methylbenzamide]",,300 to 3000,< 300
"CNC(=O)c1ccc(C[C@@H](CNC(=O)C[C@@H](CC(C)C)c2ccccc2)N(C)C)cc1F [Compound 160, 4-((S)-2-(dimethylamino)-3-((R)-5-methyl-3-phenylhexanamido)propyl)-2-fluoro-N-methylbenzamide]",,< 300,< 300
"CNC(=O)c1ccc(C[C@@H](CNC(=O)C[C@@H](c2ccccc2)C(C)C)N(C)C)cc1F [Compound 162, 4-((S)-2-(dimethylamino)-3-((R)-4-methyl-3-phenylpentanamido)propyl)-2-fluoro-N-methylbenzamide]",,300 to 3000,< 300
"CNC(=O)c1ccc(C[C@@H](CNC(=O)C[C@H](C)c2ccccn2)N(C)C)cc1F [Compound 163, 4-((S)-2-(dimethylamino)-3-((S)-3-(pyridin-2-yl)butanamido)propyl)-2-fluoro-N-methylbenzamide]",,> 3000,< 300
"CNC(=O)c1ccc2c(c1)CN(C)[C@H](CNC(=O)C[C@H](c1ccccc1)C(C)(C)C)C2 [Compound 168, (S)-3-(((S)-4,4-dimethyl-3-phenylpentanamido)methyl)-N,2-dimethyl-1,2,3,4-tetrahydroisoquinoline-7-carboxamide]",,> 3000,300 to 3000
"CC(C)C[C@@H](CC(=O)NC[C@H](Cc1ccc2[nH]c(=O)oc2c1)N(C)C)c1ccccc1 [Compound 172, (3S)-N-[(2S)-2-(dimethylamino)-3-(2-oxo-2,3-dihydro-1,3-benzoxazol-6-yl)propyl]-5-methyl-3-phenylhexanamide]",,< 300,< 300
"CC(C)[C@@H](CC(=O)NC[C@H](Cc1ccc2[nH]c(=O)oc2c1)N(C)C)c1ccccc1 [Compound 173, (R)-N-((S)-2-(dimethylamino)-3-(2-oxo-2,3-dihydrobenzo[d]oxazol-6-yl)propyl)-4-methyl-3-phenylpentanamide]",,< 300,< 300
CCCC[C@@H](CC(=O)NC[C@H](Cc1ccc2[nH]c(=O)oc2c1)N(C)C)c1ccccc1 [Compound 174],,< 300,< 300
"CN(C)[C@H](CNC(=O)C[C@H](c1ccccc1)C1CC1)Cc1ccc2[nH]c(=O)oc2c1 [Compound 177, (S)-3-cyclopropyl-N-((S)-2-(dimethylamino)-3-(2-oxo-2,3-dihydrobenzo[d]oxazol-6-yl)propyl)-3-phenylpropanamide]",,300 to 3000,< 300
"CN(C)[C@H](CNC(=O)C[C@@H](c1ccccc1)C1CC1)Cc1ccc2[nH]c(=O)oc2c1 [Compound 178, (R)-3-cyclopropyl-N-((S)-2-(dimethylamino)-3-(2-oxo-2,3-dihydrobenzo[d]oxazol-6-yl)propyl)-3-phenylpropanamide]",,300 to 3000,< 300
